# Tests used:
# [1] = tested on: annual bluegrass (Poa annua L.); experiment: Test Example 4: field test in bent green turf, emerged ear number; type: in vivo; conditions: applied Day 0 and after 30 days
# Description: In a bent green turf where annual bluegrasses (Poa annua L.) were grown, a test zone of 1 m×1 m was provided. Benzyladenine (Beanine for painting; made by Rikengreen; containing 1% benzyladenine) and ethephon (Ethrel 10 soluble concentrate; Nissan Chemical Industries; containing 10% ethephon) were diluted in a predetermined amount of water, and a spreader (Riken Sprayzer (registered trade mark); made by Rikengreen) was added so as to be 1/1,000-fold concentration. The respectively diluted solutions were applied to each test zone at the first application (Day 0) at a dose as indicated in Table, and after a lapse of 30 days the second application was carried out. The amount of solution scattered was 100 mL/m^2 both in the first and second applications. The number of ear emergence of annual bluegrass (Poa annua L.) within the area of 10×10 cm was counted at regular intervals at 3 spots per zone. […] Dose means the amount at a single application.
# [2] = tested on: annual bluegrass (Poa annua L.); experiment: Test Example 1: number of ear emergence, poly-cup, single or mixed application; type: in vivo
# Description: At the initial stage of the ear emergence of annual bluegrass (Poa annua L.) grown in a poly-cup of 11 cm×11 cm, benzyladenine (Beanine for painting; made by Rikengreen; containing 1% benzyladenine) and ethephon (Ethrel 10 soluble concentrate; Nissan Chemical Industries; containing 10% ethephon) respectively as a single active ingredient or a mixture of them were diluted in a predetermined amount of water and applied by atomization so as to be a dose as indicated in Table. The application was carried out using 100 mL/m^2 of the solution to which a spreader (Riken Sprayzer (registered trade mark); made by Rikengreen) was added so as to be 1/1,000 fold. Inspection was made on Days 21, 32 and 45 after treatment with the agents to count the number of ear emergence in the cup. After completion of each inspection, clipping was performed.
# [3] = tested on: southern crabgrasses (Digitaria ciliaris Koel.); experiment: Test Example 5: field test in Manilagrass turf, inhibitory effect for ear emergence; type: in vivo
# Description: In a Manilagrass (Zoysia matrella) turf where southern crabgrasses (Digitaria ciliaris Koel.) were grown, a test zone of 1 m×1 m was provided. Benzyladenine (Beanine for painting; made by Rikengreen; containing 1% benzyladenine) and ethephon (Ethrel 10 soluble concentrate; Nissan Chemical Industries; containing 10% ethephon) were diluted in a predetermined amount of water. The respectively diluted solutions were applied to each test zone at the first application (Day 0) at a dose as indicated in Table, and after a lapse of 17 days the second application was carried out. The first application was conducted before the ear emergence of southern crabgrasses (Digitaria ciliaris Koel.). The amount of solution scattered was 150 mL/m^2 both in the first and second applications. The inhibitory effect for the ear emergence of southern crabgrasses (Digitaria ciliaris Koel.) within the area of 1 m×1 m was evaluated according to the standard as described in Table 7. […] The symbol “●” in Table 8 indicates the treatment with each agent, and “−” means untreated. Dose means the amount at a single application.
# [4] = tested on: annual bluegrass (Poa annua L.); experiment: Test Example 2: count of ear emergence, poly-cup, applications at intervals / alternate application; type: in vivo
# Description: At the initial stage of the ear emergence of annual bluegrass (Poa annua L.) grown in a poly-cup of 11 cm×11 cm, benzyladenine (Beanine for painting; made by Rikengreen; containing 1% benzyladenine) and/or ethephon (Ethrel 10 soluble concentrate; Nissan Chemical Industries; containing 10% ethephon) were diluted in a predetermined amount of water, and a spreader (Riken Sprayzer (registered trade mark); made by Rikengreen) was added so as to be 1/1,000-fold concentration; the respectively diluted solutions were applied by atomization at a dose and intervals as indicated in Table (scattered solution: 200 mL/m^2), and the number of emerged ears of annual bluegrass (Poa annua L.) in the cup was counted through time. The test was carried out serially. […] The symbol “●” in Table indicates the treatment with benzyladenine, “◯” the treatment with ethephon, and “−” untreated. Dose means the amount at a single application.
# lawn grasses = conditions: cited from earlier work
smiles,measurement,setting,value
"c1ccc(CNc2ncnc3nc[nH]c23)cc1 [Benzyladenine, 6-benzylaminopurine]",Ear (mean emerged ear number within 10×10 cm),"[1]; Day 22, Ethephon 0, Benzyladenine 4 mg a.i./m^2",62.3
same,Ear (mean emerged ear number within 10×10 cm),"[1]; Day 22, Ethephon 0, Benzyladenine 8 mg a.i./m^2",34.3
same,Ear (mean emerged ear number within 10×10 cm),"[1]; Day 22, Ethephon 0, Benzyladenine 12 mg a.i./m^2",27.0
same,Ear (mean emerged ear number within 10×10 cm),"[1]; Day 41, Ethephon 0, Benzyladenine 4 mg a.i./m^2",150.3
same,Ear (mean emerged ear number within 10×10 cm),"[1]; Day 41, Ethephon 0, Benzyladenine 8 mg a.i./m^2",59.7
same,Ear (mean emerged ear number within 10×10 cm),"[1]; Day 41, Ethephon 0, Benzyladenine 12 mg a.i./m^2",32.7
same,Ear (mean emerged ear number within 10×10 cm),"[1]; Day 61, Ethephon 0, Benzyladenine 4 mg a.i./m^2",107.0
same,Ear (mean emerged ear number within 10×10 cm),"[1]; Day 61, Ethephon 0, Benzyladenine 8 mg a.i./m^2",53.0
same,Ear (mean emerged ear number within 10×10 cm),"[1]; Day 61, Ethephon 0, Benzyladenine 12 mg a.i./m^2",41.0
same,number of ear emergence in the cup,"[2]; 21 Days after Application, Benzyladenine 2, Ethephon 0 mg a.i./m^2",39
same,number of ear emergence in the cup,"[2]; 21 Days after Application, Benzyladenine 4, Ethephon 0 mg a.i./m^2",26
same,number of ear emergence in the cup,"[2]; 21 Days after Application, Benzyladenine 8, Ethephon 0 mg a.i./m^2",36
same,number of ear emergence in the cup,"[2]; 21 Days after Application, Benzyladenine 12, Ethephon 0 mg a.i./m^2",16
same,number of ear emergence in the cup,"[2]; 21 Days after Application, Benzyladenine 16, Ethephon 0 mg a.i./m^2",11
same,number of ear emergence in the cup,"[2]; 32 Days after Application, Benzyladenine 2, Ethephon 0 mg a.i./m^2",50
same,number of ear emergence in the cup,"[2]; 32 Days after Application, Benzyladenine 4, Ethephon 0 mg a.i./m^2",34
same,number of ear emergence in the cup,"[2]; 32 Days after Application, Benzyladenine 8, Ethephon 0 mg a.i./m^2",10
same,number of ear emergence in the cup,"[2]; 32 Days after Application, Benzyladenine 12, Ethephon 0 mg a.i./m^2",9
same,number of ear emergence in the cup,"[2]; 32 Days after Application, Benzyladenine 16, Ethephon 0 mg a.i./m^2",6
same,number of ear emergence in the cup,"[2]; 45 Days after Application, Benzyladenine 2, Ethephon 0 mg a.i./m^2",71
same,number of ear emergence in the cup,"[2]; 45 Days after Application, Benzyladenine 4, Ethephon 0 mg a.i./m^2",71
same,number of ear emergence in the cup,"[2]; 45 Days after Application, Benzyladenine 8, Ethephon 0 mg a.i./m^2",67
same,number of ear emergence in the cup,"[2]; 45 Days after Application, Benzyladenine 12, Ethephon 0 mg a.i./m^2",55
same,number of ear emergence in the cup,"[2]; 45 Days after Application, Benzyladenine 16, Ethephon 0 mg a.i./m^2",45
same,inhibition of ear emergence (summary in words),"[2]; Test Example 1, Tables 1-3",effective in inhibiting the ear emergence
same,Evaluation: index of inhibitory effect for ear emergence,"[3]; Day 18, Benzyladenine 2.5 mg a.i./m^2, applied Day 0",0 (0% or more-less than 10%)
same,Evaluation: index of inhibitory effect for ear emergence,"[3]; Day 18, Benzyladenine 5 mg a.i./m^2, applied Day 0",0 (0% or more-less than 10%)
same,Evaluation: index of inhibitory effect for ear emergence,"[3]; Day 18, Benzyladenine 10 mg a.i./m^2, applied Day 0",2 (20% or more-less than 30%)
same,Evaluation: index of inhibitory effect for ear emergence,"[3]; Day 18, Benzyladenine 15 mg a.i./m^2, applied Day 0",10 (100%)
same,Evaluation: index of inhibitory effect for ear emergence,"[3]; Day 26, Benzyladenine 2.5 mg a.i./m^2, applied Day 0",0 (0% or more-less than 10%)
same,Evaluation: index of inhibitory effect for ear emergence,"[3]; Day 26, Benzyladenine 2.5 mg a.i./m^2, applied Day 0 and Day 17",1 (10% or more-less than 20%)
same,Evaluation: index of inhibitory effect for ear emergence,"[3]; Day 26, Benzyladenine 5 mg a.i./m^2, applied Day 0",0 (0% or more-less than 10%)
same,Evaluation: index of inhibitory effect for ear emergence,"[3]; Day 26, Benzyladenine 5 mg a.i./m^2, applied Day 0 and Day 17",2 (20% or more-less than 30%)
same,Evaluation: index of inhibitory effect for ear emergence,"[3]; Day 26, Benzyladenine 10 mg a.i./m^2, applied Day 0",2 (20% or more-less than 30%)
same,Evaluation: index of inhibitory effect for ear emergence,"[3]; Day 26, Benzyladenine 10 mg a.i./m^2, applied Day 0 and Day 17",6 (60% or more-less than 70%)
same,Evaluation: index of inhibitory effect for ear emergence,"[3]; Day 26, Benzyladenine 15 mg a.i./m^2, applied Day 0",9 (90% or more-less than 100%)
same,Evaluation: index of inhibitory effect for ear emergence,"[3]; Day 26, Benzyladenine 15 mg a.i./m^2, applied Day 0 and Day 17",10 (100%)
same,Evaluation: index of inhibitory effect for ear emergence,"[3]; Day 33, Benzyladenine 2.5 mg a.i./m^2, applied Day 0",0 (0% or more-less than 10%)
same,Evaluation: index of inhibitory effect for ear emergence,"[3]; Day 33, Benzyladenine 2.5 mg a.i./m^2, applied Day 0 and Day 17",3 (30% or more-less than 40%)
same,Evaluation: index of inhibitory effect for ear emergence,"[3]; Day 33, Benzyladenine 5 mg a.i./m^2, applied Day 0",1 (10% or more-less than 20%)
same,Evaluation: index of inhibitory effect for ear emergence,"[3]; Day 33, Benzyladenine 5 mg a.i./m^2, applied Day 0 and Day 17",3 (30% or more-less than 40%)
same,Evaluation: index of inhibitory effect for ear emergence,"[3]; Day 33, Benzyladenine 10 mg a.i./m^2, applied Day 0",5 (50% or more-less than 60%)
same,Evaluation: index of inhibitory effect for ear emergence,"[3]; Day 33, Benzyladenine 10 mg a.i./m^2, applied Day 0 and Day 17",7 (70% or more-less than 80%)
same,Evaluation: index of inhibitory effect for ear emergence,"[3]; Day 33, Benzyladenine 15 mg a.i./m^2, applied Day 0",7 (70% or more-less than 80%)
same,Evaluation: index of inhibitory effect for ear emergence,"[3]; Day 33, Benzyladenine 15 mg a.i./m^2, applied Day 0 and Day 17",8 (80% or more-less than 90%)
same,Evaluation: index of inhibitory effect for ear emergence,"[3]; Day 41, Benzyladenine 2.5 mg a.i./m^2, applied Day 0",0 (0% or more-less than 10%)
same,Evaluation: index of inhibitory effect for ear emergence,"[3]; Day 41, Benzyladenine 2.5 mg a.i./m^2, applied Day 0 and Day 17",1 (10% or more-less than 20%)
same,Evaluation: index of inhibitory effect for ear emergence,"[3]; Day 41, Benzyladenine 5 mg a.i./m^2, applied Day 0",2 (20% or more-less than 30%)
same,Evaluation: index of inhibitory effect for ear emergence,"[3]; Day 41, Benzyladenine 5 mg a.i./m^2, applied Day 0 and Day 17",5 (50% or more-less than 60%)
same,Evaluation: index of inhibitory effect for ear emergence,"[3]; Day 41, Benzyladenine 10 mg a.i./m^2, applied Day 0",2 (20% or more-less than 30%)
same,Evaluation: index of inhibitory effect for ear emergence,"[3]; Day 41, Benzyladenine 10 mg a.i./m^2, applied Day 0 and Day 17",6 (60% or more-less than 70%)
same,Evaluation: index of inhibitory effect for ear emergence,"[3]; Day 41, Benzyladenine 15 mg a.i./m^2, applied Day 0",4 (40% or more-less than 50%)
same,Evaluation: index of inhibitory effect for ear emergence,"[3]; Day 41, Benzyladenine 15 mg a.i./m^2, applied Day 0 and Day 17",8 (80% or more-less than 90%)
same,Count of ear emergence,"[4]; Day 25, Benzyladenine 0.67 mg a.i./m^2 applied Day 0, 6, 12",37
same,Count of ear emergence,"[4]; Day 25, Benzyladenine 0.67 mg a.i./m^2 applied Day 6, 12",34
same,Count of ear emergence,"[4]; Day 25, Benzyladenine 0.67 mg a.i./m^2 applied Day 12",37
same,Count of ear emergence,"[4]; Day 25, Benzyladenine 2 mg a.i./m^2 applied Day 0, 6, 12",20
same,Count of ear emergence,"[4]; Day 25, Benzyladenine 2 mg a.i./m^2 applied Day 6, 12",14
same,Count of ear emergence,"[4]; Day 25, Benzyladenine 2 mg a.i./m^2 applied Day 12",22
same,Count of ear emergence,"[4]; Day 33, Benzyladenine 0.67 mg a.i./m^2 applied Day 0, 6, 12",50
same,Count of ear emergence,"[4]; Day 33, Benzyladenine 0.67 mg a.i./m^2 applied Day 6, 12",24
same,Count of ear emergence,"[4]; Day 33, Benzyladenine 0.67 mg a.i./m^2 applied Day 12",28
same,Count of ear emergence,"[4]; Day 33, Benzyladenine 2 mg a.i./m^2 applied Day 0, 6, 12",26
same,Count of ear emergence,"[4]; Day 33, Benzyladenine 2 mg a.i./m^2 applied Day 6, 12",15
same,Count of ear emergence,"[4]; Day 33, Benzyladenine 2 mg a.i./m^2 applied Day 12",23
same,rooting of lawn grasses,lawn grasses; Non-patent document 1,effect for accelerating the rooting of lawn grasses
same,growth of lawn grasses,lawn grasses; Patent document 1,effect for accelerating the growth of lawn grasses

# Source: patent US8293682B2, “Growth regulators for gramineous weeds” (Rikengreen Co., Ltd., priority 2008, dated 2012)
